Tests used:
[1] = system: 9C9H9 mAb (anti-OTA mAb); assay: direct competitive ELISA (cdELISA); type: binding, mouse; conditions: for concentrations causing 50% inhibition (IC50) binding of mAb to OTA-OVA by free toxin: FIG. 2A
Procedure: (§1) Both the cdELISA (direct competitive ELISA) and ciELISA (indirect competitive ELISA) were used to determine the specificity of 9C9H9 mAb.
Another ELISA method (direct competitive ELISA) was used to characterize mAb. The rabbit anti-mouse-Fc antibody was diluted in PBS (2 μg/mL), and 0.1 mL of the diluted form was coated onto each well. After incubation at 37° C. for 1 h and washing with Tween-PBS. The anti-OTA mAb supernatant was diluted in PBS (5 μg/mL) and 0.1 mL of the diluted form was used to coat each well. After the plate had been incubated at 4° C. overnight, it was washed with Tween-PBS followed by blocking with gelatin-PBS at 37° C. for 30 min. The plate was washed again with Tween-PBS four times, and then OTA standard (0.05 mL/well in PBS) concentrations from 0.01 to 100 ng/mL or samples together with the OTA-HRP conjugate (30 ng/mL, in PBS, 0.05 mL/well) were added and incubated at 37° C. for 50 min. The plate was washed four times with PBS-Tween, and 0.1 mL of TMB substrate solution was added. After incubation at room temperature in the dark for 10 min, the reaction was terminated by adding 0.1 mL of 1 N HCl. The absorbance at 450 nm was determined in the Vmax automatic ELISA reader.

[2] = system: 9C9H9 mAb (anti-OTA mAb); assay: indirect competitive ELISA (ciELISA); type: binding, mouse; conditions: for IC50 of binding of mAb to OTA-OVA by free toxin: OTA-OVA coated as solid-phase antigen, FIG. 2B
Procedure: as §1
Indirect Competitive ELISA was than used to characterize each mAb. Briefly, each well of a microtiter plate was coated with 0.1 mL of the OTA-OVA and kept at 4° C. overnight. After the plate had been washed four times with Tween-PBS (0.35 mL/well; 0.05% Tween 20 in PBS) using an automated ELISA washer, 0.17 mL of gelatin-PBS (0.17 mL/well; 0.1% gelatin in PBS) was added and allowed to incubate at 37° C. for 30 min. The plate was washed again and 0.05 mL of OTA standard with concentrations from 0.01 to 100 ng/mL or extracted samples (0.05 mL/well in PBS) were added to each well, and then the anti-OTA mAb (25 ng/mL in PBS, 0.05 mL/well) was added to all wells and incubated at 37° C. for 50 min. After incubation, the plate was washed four times with Tween-PBS, and 0.1 mL of goat antimouse IgG-HRP conjugate (1:20000 dilution) was added and incubated at 37° C. for 45 min. The plate was washed four times with Tween-PBS, and 0.1 mL of TMB substrate solution was added. After 10 min of incubation at room temperature, 0.1 mL of 1 N hydrochloric acid was added to stop the reaction. Absorbance at 450 nm was determined in a Vmax automatic ELISA reader.

[3] = at a concentration as high as 100 μg/mL

Row | SMILES | inhibition of the binding of mAb to the marker antigen (OTA-HRP) [1, 3] | inhibition of the binding of mAb to the marker antigen (OTA-OVA) [2, 3] | concentrations causing 50% inhibition (IC50) binding of mAb to OTA-OVA by free toxin [1] | IC50 of binding of mAb to OTA-OVA by free toxin [2]
1 | N[C@@H](Cc1ccccc1)C(=O)O [phenylalanine] | did not inhibit | did not inhibit |  | 
2 | C[C@@H]1Cc2ccc(C(=O)N[C@@H](Cc3ccccc3)C(=O)O)c(O)c2C(=O)O1 [OTB, ochratoxin B] |  |  | 0.17 ng/mL | 0.35 ng/mL
3 | CCOC(=O)[C@H](Cc1ccccc1)NC(=O)c1cc(Cl)c2c(c1O)C(=O)O[C@H](C)C2 [OTC, ochratoxin C] |  |  | 0.28 ng/mL | 0.25 ng/mL
4 | C[C@@H]1Cc2c(Cl)cc(C(=O)N[C@@H](Cc3ccccc3)C(=O)O)c(O)c2C(=O)O1 [OTA, ochratoxin A] |  |  | 0.32 ng/mL | 0.28 ng/mL
